PubChem BioAssay (NCI)
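Method: 48-hour compound exposure of cells in 96-well plates, five concentrations, linear interpolation of endpoints. Here, GI50 denotes the concentration required for 50% inhibition of growth. Definition used: TGI = concentration required for complete inhibition of growth.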

Columns and labels:
Assay in all cases: DTP human tumour cell line panel, 48 h
[1] = test system: HT29 colon
[2] = test system: MALME-3M melanoma
[3] = test system: NCI-H460 lung
[4] = test system: NCI/ADR-RES ovarian
[5] = test system: OVCAR-8 ovarian
[6] = test system: SF-539 CNS
[7] = test system: SK-MEL-2 melanoma
[8] = test system: SN12C renal
[9] = test system: SNB-75 CNS
[10] = test system: TK-10 renal

Row | Structure (SMILES) | GI50 [1] | TGI [1] | GI50 [2] | TGI [2] | GI50 [3] | TGI [3] | GI50 [4] | TGI [4] | GI50 [5] | TGI [5] | GI50 [6] | TGI [6] | GI50 [7] | TGI [7] | GI50 [8] | TGI [8] | GI50 [9] | TGI [9] | GI50 [10] | TGI [10]
1 | CSc1nc2nc3c(nc2c(=O)n1C)C(=O)c1ccccc1C3=O | 0.253 µM | 0.637 µM | 0.0406 µM | 0.166 µM | 0.101 µM | 0.393 µM | 0.253 µM | 0.938 µM | 0.225 µM | 0.834 µM | 0.196 µM | 0.384 µM | 0.207 µM | 0.471 µM | 0.157 µM | 0.307 µM | 0.128 µM | 0.266 µM | 0.766 µM | 2.1 µM
2 | CCN(CC)CCCC(C)Nc1cc(-c2cccc(OC(F)(F)F)c2)nc2ccc(N3CCCC3)cc12 (stereo not given) | 0.0394 µM | 11.2 µM | 0.0679 µM | 32.6 µM | 0.0377 µM | 3.66 µM | 0.0453 µM | 6.27 µM | 0.0626 µM | 34.3 µM | 0.0382 µM | 0.508 µM | 0.598 µM | 27 µM | 0.124 µM | 16.1 µM | 0.0361 µM | 59.4 µM | 8.82 µM | > 93.1 µM
3 | NC(=O)c1ccc(Oc2nccc(-c3c(-c4ccc(F)cc4)ncn3C3CCNCC3)n2)cc1 | > 25 µM | > 25 µM | > 25 µM | > 25 µM | > 25 µM | > 25 µM | > 25 µM | > 25 µM | > 25 µM | > 25 µM | > 25 µM | > 25 µM | > 25 µM | > 25 µM | > 25 µM | > 25 µM | > 25 µM | > 25 µM | > 25 µM | > 25 µM
4 | CCCCC#Cc1c(I)n(C)c(=O)[nH]c1=O | 2.27 µM | 5.08 µM | 1.94 µM | 3.55 µM | 20.1 µM | 39.7 µM | 6.48 µM | 19.5 µM | 3.36 µM | 10.1 µM | 15.8 µM | 29.2 µM | 1.93 µM | 4.06 µM | 13.2 µM | 26.5 µM | 12.3 µM | 24.7 µM | 4.76 µM | 16 µM
5 | O=C(O)/C(Cc1cn[nH]n1)=N\O |  | > 100 µM |  | > 100 µM |  | > 100 µM |  | > 100 µM |  | > 100 µM |  | > 100 µM |  | > 100 µM |  | > 100 µM |  | > 100 µM |  | > 100 µM
6 | C1CN(c2nnc(N3CCC3)nn2)C1 |  | > 56.2 µM |  | > 79.3 µM |  | > 100 µM |  | > 100 µM |  | > 100 µM |  | 77.6 µM |  | > 89.5 µM |  | 65.8 µM |  | > 46.4 µM |  | > 100 µM
7 | C#C[C@@]1(O)[C@@H](CO)O[C@@H](n2cc(I)c3c(N)ncnc32)[C@@H]1O | 0.0237 µM | 4.75 µM | 0.826 µM | 3.39 µM | 0.0895 µM | 1.91 µM | 0.0731 µM | 7.9 µM | 0.0456 µM |  | 0.378 µM | 2.55 µM | 0.239 µM | 1.76 µM | 0.0976 µM | > 100 µM | 0.457 µM | 1.99 µM | 0.551 µM | 5.51 µM
8 | O=C(CN(/C=C/C(=O)C(F)(F)F)c1ccc(Cl)cc1)c1ccc(Cl)c(Cl)c1 | 3.96 µM | > 100 µM | 9.98 µM | 22.3 µM | 3.18 µM | 9.36 µM | 6.03 µM | 19.7 µM | 10.7 µM | 28.8 µM | 20.1 µM | 38 µM | 7.15 µM | 20.7 µM | 2.38 µM | 5.43 µM | 13.6 µM | 31.6 µM | 7.38 µM | 20.1 µM
9 | Cn1cc(C2=C(c3c[nH]c4ccccc34)C(=O)NC2=O)c2ccccc21 | 0.968 µM | > 25 µM | 0.143 µM | > 25 µM | 0.732 µM | > 25 µM | 3.33 µM | > 25 µM | 1.51 µM | > 25 µM | 0.195 µM | 1.14 µM | 1.09 µM | > 25 µM | 1.32 µM | > 25 µM | 0.071 µM | > 7.62 µM | 0.132 µM | > 25 µM
10 | O=C(NCCCc1cn[nH]c1)c1ccc(-c2ccncc2)c(C#Cc2ccc(F)cc2)c1 | < 0.01 µM | 36.7 µM | 10.2 µM | 54.2 µM | 0.145 µM | 41.9 µM | < 0.0116 µM | > 100 µM | < 0.01 µM | > 100 µM | < 0.01 µM | 14.5 µM | 11.5 µM | > 74.1 µM | < 0.01 µM | > 100 µM | 8.82 µM | > 100 µM | 12.8 µM | > 100 µM
11 | S=C1Cc2c(-c3ccc(Br)cc3)cc(-c3ccccc3)nc2-c2ccccc2N1 |  | 5.81 µM |  | 7.41 µM |  | 2.66 µM |  | 4.43 µM |  | 3.02 µM |  | 12.2 µM |  | 20 µM |  | 2.97 µM |  | 3.35 µM | 1.79 µM | 3.75 µM
